Test system: NOMO1
Assay: cell viability relative to DMSO control; higher = less cytotoxic
Settings: 48 h
In short: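 NOMO1, SEM and P12-Ichikawa leukemia cells spent at least four passages adapting to each medium before use. They were seeded at 500 cells/well (NOMO1, SEM) or 1000 cells/well (P12-Ichikawa) in 5 μl in 1536-well plates and pin-dosed with library compounds in DMSO at 11 threefold steps from 47 μM down to 0.79 nM. After 48 h at 37°C, CellTiter-Glo One luminescence was read. Viability is reported as a percentage of the DMSO wells on each plate, with cell-free wells as background.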

[1] = RPMI 5 mM glucose + 10% FBS, 0.000781 µM
[2] = RPMI 5 mM glucose + 10% FBS, 0.00234 µM
[3] = RPMI 5 mM glucose + 10% FBS, 0.00702 µM
[4] = RPMI 5 mM glucose + 10% FBS, 0.0211 µM
[5] = RPMI 5 mM glucose + 10% FBS, 0.0632 µM
[6] = RPMI 5 mM glucose + 10% FBS, 0.19 µM
[7] = RPMI 5 mM glucose + 10% FBS, 0.569 µM
[8] = RPMI 5 mM glucose + 10% FBS, 1.71 µM
[9] = RPMI 5 mM glucose + 10% FBS, 5.12 µM
[10] = RPMI 5 mM glucose + 10% FBS, 15.4 µM
[11] = RPMI 5 mM glucose + 10% FBS, 46.1 µM
[12] = HPLM + 10% dialyzed FBS, 0.000781 µM
[13] = HPLM + 10% dialyzed FBS, 0.00234 µM
[14] = HPLM + 10% dialyzed FBS, 0.00702 µM
[15] = HPLM + 10% dialyzed FBS, 0.0211 µM
[16] = HPLM + 10% dialyzed FBS, 0.0632 µM
[17] = HPLM + 10% dialyzed FBS, 0.19 µM
[18] = HPLM + 10% dialyzed FBS, 0.569 µM
[19] = HPLM + 10% dialyzed FBS, 1.71 µM
[20] = HPLM + 10% dialyzed FBS, 5.12 µM
[21] = HPLM + 10% dialyzed FBS, 15.4 µM
[22] = HPLM + 10% dialyzed FBS, 46.1 µM
[23] = RPMI 5 mM glucose + 10% dialyzed FBS, 0.000781 µM
[24] = RPMI 5 mM glucose + 10% dialyzed FBS, 0.00234 µM
[25] = RPMI 5 mM glucose + 10% dialyzed FBS, 0.00702 µM
[26] = RPMI 5 mM glucose + 10% dialyzed FBS, 0.0211 µM
[27] = RPMI 5 mM glucose + 10% dialyzed FBS, 0.0632 µM
[28] = RPMI 5 mM glucose + 10% dialyzed FBS, 0.19 µM
[29] = RPMI 5 mM glucose + 10% dialyzed FBS, 0.569 µM
[30] = RPMI 5 mM glucose + 10% dialyzed FBS, 1.71 µM
[31] = RPMI 5 mM glucose + 10% dialyzed FBS, 5.12 µM
[32] = RPMI 5 mM glucose + 10% dialyzed FBS, 15.4 µM
[33] = RPMI 5 mM glucose + 10% dialyzed FBS, 46.1 µM

| Structure (SMILES) | cell viability [1] [%] | cell viability [2] [%] | cell viability [3] [%] | cell viability [4] [%] | cell viability [5] [%] | cell viability [6] [%] | cell viability [7] [%] | cell viability [8] [%] | cell viability [9] [%] | cell viability [10] [%] | cell viability [11] [%] | cell viability [12] [%] | cell viability [13] [%] | cell viability [14] [%] | cell viability [15] [%] | cell viability [16] [%] | cell viability [17] [%] | cell viability [18] [%] | cell viability [19] [%] | cell viability [20] [%] | cell viability [21] [%] | cell viability [22] [%] | cell viability [23] [%] | cell viability [24] [%] | cell viability [25] [%] | cell viability [26] [%] | cell viability [27] [%] | cell viability [28] [%] | cell viability [29] [%] | cell viability [30] [%] | cell viability [31] [%] | cell viability [32] [%] | cell viability [33] [%] |
| --- | --- | --- | --- | --- | --- | --- | --- | --- | --- | --- | --- | --- | --- | --- | --- | --- | --- | --- | --- | --- | --- | --- | --- | --- | --- | --- | --- | --- | --- | --- | --- | --- | --- |
| CC(C)(C#N)c1cc(Cn2cncn2)cc(C(C)(C)C#N)c1 | 123 | 106 | 102 | 111 | 109 | 106 | 127 | 114 | 44.2 | 106 | 107 | – | – | – | – | – | – | – | – | – | – | – | – | – | – | – | – | – | – | – | – | – | – |
| C[C@]12CC[C@H]3[C@@H](CC[C@H]4NC(=O)\C=C/[C@]34C)[C@@H]1CC[C@@H]2C(=O)NC5=CC(=CC=C5C(F)(F)F)C(F)(F)F | 117 | 125 | 114 | 100 | 111 | 109 | 112 | 112 | 107 | 96.3 | 98.8 | 123 | 123 | 122 | 118 | 123 | 114 | 101 | 118 | 107 | 96.1 | 94.7 | 105 | 120 | 105 | 118 | 104 | 111 | 111 | 103 | 94.9 | 103 | 96.9 |
| COc1ccc([S+](=O)([O-])N(C(C)=O)c2ccccc2/C=C/c2cc[n+]([O-])cc2)cc1 | 116 | 106 | 129 | 114 | 105 | 112 | 130 | 44.5 | 21 | 24.4 | 22.6 | – | – | – | – | – | – | – | – | – | – | – | 108 | 111 | 116 | 126 | 115 | 121 | 122 | 46.4 | 25.3 | 26.8 | 28.4 |
| C[C@](Cc1c[nH]c2ccccc12)(NC(=O)OC1C2CC3CC(C2)CC1C3)C(=O)NC[C@H](NC(=O)CCC(=O)O)c1ccccc1 (stereo partly specified) | 114 | 128 | 120 | 126 | 120 | 127 | 125 | 126 | 151 | 153 | 147 | 123 | 94 | 130 | 135 | 148 | 142 | 134 | 145 | 157 | 154 | 141 | 106 | 123 | 120 | 132 | 132 | 133 | 153 | 129 | 139 | 147 | 153 |
| Cc1nn(Cc2ccccc2Cl)c(C)c1CN(C)CC(O)COc1ccc(Cl)cc1 (stereo unspecified) | 100 | 92.9 | 89.1 | 90.4 | 90.5 | 94.1 | 99.5 | 93.7 | 90.8 | 85.6 | 34.5 | 106 | 101 | 98 | 97.7 | 99.7 | 103 | 108 | 106 | 85.8 | 83.1 | 22.5 | 94.7 | 101 | 110 | 101 | 106 | 99.4 | 100 | 94.4 | 83.9 | 75.3 | 27.2 |
| C[C@@]12C(=O)OC(=O)[C@@]1(C)C1CCC2O1 | 98.4 | 90.8 | 86.6 | 87.1 | 103 | 89.9 | 95.3 | 81.6 | 79.9 | 8.16 | 6.61 | 111 | 109 | 107 | 116 | 115 | 123 | 114 | 101 | 70.4 | 12.6 | 6.53 | 110 | 96.1 | 101 | 99.7 | 106 | 106 | 88.6 | 89.8 | 64.9 | 7.15 | 5.77 |
| CCC[S+]([O-])c1ccc2[nH]c(NC(=O)OC)nc2c1 (stereo unspecified) | 88.2 | 96.6 | 94.2 | 103 | 101 | 89.9 | 101 | 82 | 93.8 | 71.2 | 15.5 | 102 | 81.8 | 100 | 106 | 98.5 | 109 | 95 | 79.5 | 93.5 | 72.2 | 18.7 | 94.5 | 91.3 | 94.7 | 87.4 | 84.9 | 88.8 | 81.7 | 76.4 | 81.2 | 58.4 | 19.4 |
| COc1ccc([C@@H]2CC(=O)c3c(O)cc(O[C@@H]4O[C@H](CO[C@@H]5O[C@@H](C)[C@H](O)[C@@H](O)[C@H]5O)[C@@H](O)[C@H](O)[C@H]4O)cc3O2)cc1O | 120 | 106 | 107 | 114 | 121 | 118 | 117 | 123 | 120 | 119 | 118 | 107 | 117 | 122 | 128 | 116 | 123 | 125 | 118 | 115 | 108 | 103 | 98.8 | 106 | 115 | 113 | 110 | 96.6 | 115 | 125 | 115 | 101 | 101 |
| O=C(Nc1cc(Cl)cc2c1[nH]c1cnccc12)c1cccnc1 | – | – | – | – | – | – | – | – | – | – | – | – | – | – | – | – | – | – | – | – | – | – | 118 | 114 | 124 | 110 | 110 | 124 | 131 | 123 | 117 | 109 | 109 |
| COCC1(CO)C(=O)C2CCN1CC2 (stereo unspecified) | 91.9 | 95.4 | 102 | 106 | 107 | 104 | 103 | 100 | 111 | 79 | 18.1 | 116 | 106 | 103 | 123 | 104 | 121 | 92.4 | 130 | 105 | 60.1 | 31.7 | 93.8 | 110 | 94.6 | 98.8 | 115 | 108 | 90.9 | 94.6 | 104 | 94.8 | 50.2 |
| CN1CCN(C2=Nc3cc(Cl)ccc3Nc3ccccc32)CC1 | 98.6 | 94.3 | 102 | 98.4 | 107 | 101 | 103 | 96.3 | 106 | 106 | 102 | 103 | 100 | 110 | 111 | 116 | 119 | 113 | 132 | 112 | 106 | 59.3 | 87.5 | 99.6 | 99.7 | 90.1 | 115 | 106 | 110 | 99.3 | 103 | 97.9 | 78.4 |
| C[C@H](NC(=O)c1sccc1OCc1ccc(Cl)cc1)c1ccccc1 | 85.6 | 83.6 | 72.4 | 82.2 | 94.3 | 77.9 | 83.1 | 78.7 | 77.7 | 81.1 | 77.5 | 80.8 | 88.2 | 80 | 77.6 | 91.5 | 87.5 | 69.1 | 68.5 | 86.9 | 80.1 | 69 | 91.3 | 83.6 | 77.9 | 90.7 | 82 | 76.2 | 66.8 | 82.6 | 90.8 | 77.7 | 87.8 |

— the supplement of paper PMC11451515
